{
  "source": "patent US10568876B2",
  "about": "“Tetrahydroisoquinoline derivatives useful as inhibitors of diacylglyceride O-acyltransferase 2” (Merck Sharp & Dohme Corp., priority 2014, dated 2020)",
  "data": [
    {"target": "hDGAT2 (Homo sapiens (Human), UniProt Q96PD7)", "sequence (Q96PD7 whole entry)": "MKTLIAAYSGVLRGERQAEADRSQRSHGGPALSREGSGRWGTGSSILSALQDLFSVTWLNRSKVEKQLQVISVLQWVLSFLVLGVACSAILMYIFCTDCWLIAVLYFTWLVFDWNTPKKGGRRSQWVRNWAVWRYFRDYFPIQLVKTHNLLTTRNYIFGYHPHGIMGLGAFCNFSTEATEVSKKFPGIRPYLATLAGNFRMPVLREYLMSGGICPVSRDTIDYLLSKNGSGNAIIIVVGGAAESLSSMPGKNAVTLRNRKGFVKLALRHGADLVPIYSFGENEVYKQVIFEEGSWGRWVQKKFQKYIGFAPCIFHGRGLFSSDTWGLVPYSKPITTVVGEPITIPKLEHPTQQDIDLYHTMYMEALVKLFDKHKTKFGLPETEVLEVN", "assay": "DGAT2 Enzymatic Activity Assay", "type": "biochemical", "details": "hDGAT2 Sf-9 membrane prep; 25 μM diolein, 10 μM oleoyl-CoA; triolein product by LC/MS/MS; read-out: IC50 values for inhibition of DGAT2", "protocol": "Sf-9 insect cells were maintained in Grace's insect cell culture medium with 10% heated-inactivated fetal bovine serum, 1% Pluronic F-68 and 0.14 μg/ml Kanamycine sulfate in Erlenmeyer flasks at 28° C. in a shaker incubator. After infection with untagged hDGAT2 baculovirus at multiplicity of infection (MOI) 0.1 for 48 hours, cells were harvested. Cell pellets were suspended in buffer containing 10 mM Tris-HCl (pH 7.5), 1 mM EDTA (pH 8.0), 250 mM sucrose and Complete Protease Inhibitor Cocktail (Roche Diagnostics Corp., Indianapolis, Ill.), and sonicated on ice. Membrane fractions were isolated by ultracentrifugation (100,000×g pellet), resuspended in the same buffer, and frozen (−80° C.) for later use. The protein concentration was determined with the BCA Protein Assay kit (Pierce Biotechnology Inc., Rockford, Ill.). Expression of protein levels was analyzed by immunoblotting with goat polyclonal DGAT2 antibody C-15 and donkey anti-goat IgG HRP (Santa Cruz Biotechnology, Inc., Santa Cruz, Calif.) followed by detection with ECL reagent (GE Healthcare, Piscataway, N.J.).\nLC/MS/MS analyses were performed using Thermal Fisher's LX4-TSQ Vantage system. This system consists of an Agilent binary high-performance liquid chromatography (HPLC) pumps and a TSQ Vantage triple quadrupole MS/MS instrument. For each sample, 2 μL, samples from the top organic layer of in-plate liquid-liquid extraction were injected onto a Thermo Betabasic C4 column (2.1 mm×20 mm, 5 μm particle size). The samples were then eluted using the following conditions; mobile phase: methanol/water with 0.1% ammonium format=92/8 (v/v), flow rate: 1 mL/min, temperature: 25 C. Data was acquired in positive mode using a heated electrospray ionization (HESI) interface. The operational parameters for the TSQ Vantage MS/MS instrument were a spray voltage of 3000 V, capillary temperature of 280° C., vaporizer temperature 400° C., shealth gas 60 arbitrary unit, Aux gas 40 arbitrary units, S-lens 113 and collision gas 0.16 Pascals. […] (SRM) chromatograms of triolein (Q1: 902.9>Q3: 602.3) and internal standard (Q1: 902.9>Q3: 602.3) were collected for 40 sec. The peak area was integrated by Xcalibur Quan software. The ratio between the triolein generated in the reaction and spiked in internal standard were used to generate percentage inhibition and IC50 values. Compound percentage inhibition was calculated by the following formula: Inhibition %=1-[(compound response low control)/(high control low control)]×100%. Potent compounds were titrated and IC50 were calculated by 4 parameter sigmoidal curve fitting formula.\nDGAT2 activity was determined by measuring the amount of enzymatic product triolein (1,2,3-Tri(cis-9-octadecenoyl)glycerol) using the membrane prep mentioned above. The assay was carried out in deep well 384 plates in a final volume of 40 μL at room temperature. The assay mixture contained the following: assay buffer (100 mM Tris.Cl, pH 7.0, 20 mM MgCl2, 5% ethanol), 25 μM of diolein, 10 μM of oleoyl-CoA and 10 ng/μL of DGAT2 membrane.", "units": {"IC50": "nM"}, "values": [
      {"smiles": "Cc1noc([C@@H]2C[C@H]2C(=O)NCc2ccc(-c3cccc(OC(F)(F)F)c3)c3c2CN(C(=O)Nc2ccon2)CC3)n1", "note": "(relative stereo) [Example 2, N-(isoxazol-3-yl)-8-(((trans)-2-(3-methyl-1,2,4-oxadiazol-5-yl)cyclopropanecarboxamido)methyl)-5-(3-(trifluoromethoxy)phenyl)-3,4-dihydroisoquinoline-2(1H)-carboxamide]", "IC50": 112},
      {"smiles": "CC(C)(C)NC(=O)N1CCc2c(-c3cccc(-n4ccnn4)c3)ccc(CNC(=O)[C@@H]3C[C@H]3c3ccccc3)c2C1", "note": "(relative stereo) [Example 5, 5-(3-(1H-1,2,3-triazol-1-yl)phenyl)-N-(tert-butyl)-8-(((trans)-2-phenylcyclopropanecarboxamido)methyl)-3,4-dihydroisoquinoline-2(1H)-carboxamide]", "IC50": 11.4},
      {"smiles": "Cc1noc([C@@H]2C[C@H]2C(=O)NCc2ccc(-c3cccc(C(F)(F)F)c3)c3c2CN(C(=O)Nc2cccnc2)CC3)n1", "note": "(relative stereo) [Example 6, 8-(((trans)-2-(3-methyl-1,2,4-oxadiazol-5-yl)cyclopropanecarboxamido)methyl)-N-(pyridin-3-yl)-5-(3-(trifluoromethyl)phenyl)-3,4-dihydroisoquinoline-2(1H)-carboxamide]", "IC50": 101},
      {"smiles": "Cc1cncc(-c2ccc(CNC(=O)[C@@H]3C[C@H]3c3ccccc3)c3c2CCN(C(=O)NC(C)(C)C)C3)c1", "note": "(relative stereo) [Example 8, N-(tert-butyl)-5-(5-methylpyridin-3-yl)-8-(((trans)-2-phenylcyclopropanecarboxamido)methyl)-3,4-dihydroisoquinoline-2(1H)-carboxamide]", "IC50": 82.3},
      {"smiles": "CC(C)(C)NC(=O)N1CCc2c(-c3cccc(OC(F)(F)F)c3)ccc(CNC(=O)[C@H]3C[C@@H]3c3ccccc3)c2C1", "note": "(relative stereo) [Example 9, N-(tert-butyl)-8-(((trans)-2-phenylcyclopropanecarboxamido)methyl)-5-(3-(trifluoromethoxy)phenyl)-3,4-dihydroisoquinoline-2(1H)-carboxamide]", "IC50": 31},
      {"smiles": "CC(C)(C)NC(=O)N1CCc2c(-c3cncc(C(C)(C)O)c3)ccc(CNC(=O)[C@@H]3C[C@H]3c3ccccc3)c2C1", "note": "(relative stereo) [Example 10, N-(tert-butyl)-5-(5-(2-hydroxypropan-2-yl)pyridin-3-yl)-8-(((trans)-2-phenylcyclopropanecarboxamido)methyl)-3,4-dihydroisoquinoline-2(1H)-carboxamide]", "IC50": 166},
      {"smiles": "COc1cccc(-c2ccc(CNC(=O)[C@@H]3C[C@H]3c3nc(C)no3)c3c2CCN(C(=O)NC(C)(C)C)C3)c1", "note": "(relative stereo) [Example 11, N-(tert-butyl)-5-(3-methoxyphenyl)-8-(((trans)-2-(3-methyl-1,2,4-oxadiazol-5-yl)cyclopropanecarboxamido)methyl)-3,4-dihydroisoquinoline-2(1H)-carboxamide]", "IC50": 3},
      {"smiles": "Cc1noc([C@@H]2C[C@H]2C(=O)NCc2ccc(-c3cccc(OC(F)(F)F)c3)c3c2CN(C(=O)NC(C)(C)C)CC3)n1", "note": "(relative stereo) [Example 12, N-(tert-butyl)-8-(((trans)-2-(3-methyl-1,2,4-oxadiazol-5-yl)cyclopropanecarboxamido)methyl)-5-(3-(trifluoromethoxy)phenyl)-3,4-dihydroisoquinoline-2(1H)-carboxamide]", "IC50": 3.6},
      {"smiles": "CC(C)(C)NC(=O)N1CCc2c(-c3cccc(C(F)(F)F)c3)ccc(CNC(=O)[C@@H]3C[C@H]3c3ccccc3)c2C1", "note": "(relative stereo) [Example 14, N-(tert-butyl)-8-(((trans)-2-phenylcyclopropanecarboxamido)methyl)-5-(3-(trifluoromethyl)phenyl)-3,4-dihydroisoquinoline-2(1H)-carboxamide]", "IC50": 34},
      {"smiles": "COc1cccc(-c2ccc(CNC(=O)[C@@H]3C[C@H]3c3ccccc3)c3c2CCN(C(=O)Nc2ccccn2)C3)c1", "note": "(relative stereo) [Example 15, 5-(3-methoxyphenyl)-8-(((trans)-2-phenylcyclopropanecarboxamido)methyl)-N-(pyridin-2-yl)-3,4-dihydroisoquinoline-2(1H)-carboxamide]", "IC50": 3110},
      {"smiles": "COc1cccc(-c2ccc(CNC(=O)[C@@H]3C[C@H]3c3ccccc3)c3c2CCN(C(=O)Nc2ccncc2)C3)c1", "note": "(relative stereo) [Example 18, 5-(3-methoxyphenyl)-8-(((trans)-2-phenylcyclopropanecarboxamido)methyl)-N-(pyridin-4-yl)-3,4-dihydroisoquinoline-2(1H)-carboxamide]", "IC50": 2100},
      {"smiles": "COc1cccc(-c2ccc(CNC(=O)[C@H]3C[C@@H]3c3cccnc3)c3c2CCN(C(=O)NC(C)(C)C)C3)c1", "note": "(relative stereo) [Example 19, N-(tert-butyl)-5-(3-methoxyphenyl)-8-(((trans)-2-(pyridin-3-yl)cyclopropanecarboxamido)methyl)-3,4-dihydroisoquinoline-2(1H)-carboxamide]", "IC50": 8.5},
      {"smiles": "COc1cccc(-c2ccc(CNC(=O)[C@@H]3C[C@H]3c3ccccc3)c3c2CCN(C(=O)Nc2cc(C)no2)C3)c1", "note": "(relative stereo) [Example 20, 5-(3-methoxyphenyl)-N-(3-methylisoxazol-5-yl)-8-(((trans)-2-phenylcyclopropanecarboxamido)methyl)-3,4-dihydroisoquinoline-2(1H)-carboxamide]", "IC50": 1640},
      {"smiles": "CC(C)(C)NC(=O)N1CCc2c(-c3cccc(C#N)c3)ccc(CNC(=O)[C@@H]3C[C@H]3c3ccccc3)c2C1", "note": "(relative stereo) [Example 22, N-(tert-butyl)-5-(3-cyanophenyl)-8-(((trans)-2-phenylcyclopropanecarboxamido)methyl)-3,4-dihydroisoquinoline-2(1H)-carboxamide]", "IC50": 16.1},
      {"smiles": "COc1cccc(-c2ccc(CNC(=O)[C@@H]3C[C@H]3c3ccccc3)c3c2CCN(C(=O)Nc2ccon2)C3)c1", "note": "(relative stereo) [Example 23, N-(isoxazol-3-yl)-5-(3-methoxyphenyl)-8-(((trans)-2-phenylcyclopropanecarboxamido)methyl)-3,4-dihydroisoquinoline-2(1H)-carboxamide]", "IC50": 302},
      {"smiles": "COc1cccc(-c2ccc(CNC(=O)[C@@H]3C[C@H]3c3ccccc3)c3c2CCN(C(=O)Nc2cccnc2)C3)c1", "note": "(relative stereo) [Example 24, 5-(3-methoxyphenyl)-8-(((trans)-2-phenylcyclopropanecarboxamido)methyl)-N-(pyridin-3-yl)-3,4-dihydroisoquinoline-2(1H)-carboxamide]", "IC50": 238},
      {"smiles": "COc1cccc(-c2ccc(CNC(=O)[C@@H]3C[C@H]3c3nc(C)no3)c3c2CCN(C(=O)Nc2ccon2)C3)c1", "note": "(relative stereo) [Example 25, N-(isoxazol-3-yl)-5-(3-methoxyphenyl)-8-(((trans)-2-(3-methyl-1,2,4-oxadiazol-5-yl)cyclopropanecarboxamido)methyl)-3,4-dihydroisoquinoline-2(1H)-carboxamide]", "IC50": 144},
      {"smiles": "Cc1noc([C@@H]2C[C@H]2C(=O)NCc2ccc(-c3cccc(C(F)(F)F)c3)c3c2CN(C(=O)Nc2ccon2)CC3)n1", "note": "(relative stereo) [Example 26, N-(isoxazol-3-yl)-8-(((trans)-2-(3-methyl-1,2,4-oxadiazol-5-yl)cyclopropanecarboxamido)methyl)-5-(3-(trifluoromethyl)phenyl)-3,4-dihydroisoquinoline-2(1H)-carboxamide]", "IC50": 126},
      {"smiles": "Cc1noc2ccc(-c3ccc(CNC(=O)[C@@H]4C[C@H]4c4ccccc4)c4c3CCN(C(=O)NC(C)(C)C)C4)cc12", "note": "(relative stereo) [Example 27, N-(tert-butyl)-5-(3-methylbenzo[d]isoxazol-5-yl)-8-(((trans)-2-phenylcyclopropanecarboxamido)methyl)-3,4-dihydroisoquinoline-2(1H)-carboxamide]", "IC50": 59.8},
      {"smiles": "CC(C)(C)NC(=O)N1CCc2c(-c3ccc4ncnn4c3)ccc(CNC(=O)[C@@H]3C[C@H]3c3ccccc3)c2C1", "note": "(relative stereo) [Example 29, 5-([1,2,4]triazolo[1,5-a]pyridin-6-yl)-N-(tert-butyl)-8-(((trans)-2-phenylcyclopropanecarboxamido)methyl)-3,4-dihydroisoquinoline-2(1H)-carboxamide]", "IC50": 4640}
    ]}
  ]
}
